Measured values from patent US20230123601A1, “PHARMACEUTICAL COMBINATION OF ANTIVIRAL AGENTS TARGETING HBV AND/OR AN IMMUNE MODULATOR FOR TREATMENT OF HBV” (priority 2019, published 2023).

Test system: HBV
Test: HBsAg levels in serum of AAV/HBV mice (CLIA)
Assay type: in vivo, C57BL/6 mice
Set-up: HBsAg levels in serum (Average ± SD): scale not given here
Source text: The AAV-HBV mouse model is generated by injecting C57BL/6 mice with recombinant adeno-associated virus harboring a replicable HBV genome (AAV-HBV). The rAAV8-1.3 HBV ayw virus stock was purchased from Beijing FivePlus Molecular Medicine Institute (Beijing, China). The animals (male, aged 4-5 weeks upon arrival) were purchased from SLAC Laboratory Animal Co. Ltd (Shanghai, China), acclimatized in the animal facility for 5-7 days, and then injected with 1×10^11 vector genome of AAV-HBV (diluted in 200 μL of PBS) through the tail vein. Persistence expression of HBV genome can be established after three weeks, with high levels of HBV viral markers including HBV DNA, HBsAg, and HBeAg in mouse serum. With stable HBV viremia and competent immune system of the C57BL/6 mice, the AAV-HBV mouse model was used to evaluate the in vivo anti-HBV efficacy of the compounds. The in-life part of the AAV-HBV study was conducted through contracted service at Covance Pharmaceutical Research and Development (Shanghai) Co. Ltd. (Covance Shanghai) and the post-life analysis using the serum was performed internally at Roche Innovation Center Shanghai (RICS).
Seven days before compound treatment, blood samples were collected for serum preparation (˜15 μL), and based on HBV DNA, HBsAg levels in serum and body weight, the AAV-HBV infected animals were stratified into the different treatment groups.
Saline (Group 01) and anti-HBV ASO of CMP ID NO: 15_1 at 1.5 or 7.5 mg/kg were dosed sub subcutaneously once a week during Day 0-49 on Days 0, 7, 14, 21, 28, 35, 42 and 49. TLR7 agonist of CMP ID NO: VI 100 mg/kg was administered by oral gavage once every other day during Day 0-55 (QOD) or once weekly during Day 0-49 on Days 0, 7, 14, 21, 28, 35, 42 and 49 (QW). The animals were weekly bled via retro-orbital sinus for sample collection throughout the study.
Serum HBsAg levels were determined in the serum of infected AAV-HBV mouse using the HBsAg chemoluminescence immunoassay (CLIA) (Autobio diagnostics Co. Ltd., Zhengzhou, China, Cat. no. CL0310-2), according to the manufacturer's protocol. Briefly, 50 μl of serum was transferred to the antibody coated microtiter plate and 50 μl of enzyme conjugate reagent was added. The plate was incubated for 60 min on a shaker at room temperature before all wells were washed six times with washing buffer using an automatic washer. 25 μl of substrate A and then 25 μl of substrate B was added to each well. The plate was incubated for 10 min at RT before luminescence was measured using an Envision luminescence reader (Perkin Elmer). HBsAg is given in the unit IU/ml; where 1 ng HBsAg=1.14 IU.
To evaluate the combination of the anti-HBV ASO and the TLR7 agonist in an in vivo system, a mouse model of chronic HBV infection was used. In the AAV/HBV mouse model described in the Materials and Method a persistent HBV infection is established resulting in expression of viral markers (HBsAg, HBeAg, HBV DNA) detectable in plasma. The effect on these viral markers upon treatment with the anti-HBV ASO of CMP ID NO: 15_1 (table 2, and FIG. 4) dosed at 1.5 mg/kg or 7.5 mg/kg and the TLR7 agonist of CMP ID NO: VI (table 3) dosed with […] every other day (QOD) or once weekly (QW) in monotherapy or in combination has been evaluated.

## CC[C@H](OC(C)=O)[C@@H]1C[C@@H](O)[C@H](n2c(=O)sc3cnc(N)nc32)O1 [CMP ID NO: VI, [(1S)-1-[(2S,4R,5R)-5-(5-amino-2-oxo-thiazolo[4,5-d]pyrimidin-3-yl)-4-hydroxy-tetrahydrofuran-2-yl]propyl] acetate]
D0, 15_1 1.5 mg/kg weekly, VI 100 mg/kg QOD, or combination of both
  HBsAg levels in serum (Average ± SD): 4.14 ± 0.37
D0, 15_1 1.5 mg/kg weekly, VI 100 mg/kg QW, or combination of both
  HBsAg levels in serum (Average ± SD): 4.07 ± 0.44
D0, 15_1 7.5 mg/kg weekly, VI 100 mg/kg QOD, or combination of both
  HBsAg levels in serum (Average ± SD): 4.14 ± 0.37
D0, 15_1 7.5 mg/kg weekly, VI 100 mg/kg QW, or combination of both
  HBsAg levels in serum (Average ± SD): 4.07 ± 0.44
D7, 15_1 1.5 mg/kg weekly, VI 100 mg/kg QOD, or combination of both
  HBsAg levels in serum (Average ± SD): 3.68 ± 1.03
D7, 15_1 1.5 mg/kg weekly, VI 100 mg/kg QW, or combination of both
  HBsAg levels in serum (Average ± SD): 3.72 ± 0.85
D7, 15_1 7.5 mg/kg weekly, VI 100 mg/kg QOD, or combination of both
  HBsAg levels in serum (Average ± SD): 3.68 ± 1.03
D7, 15_1 7.5 mg/kg weekly, VI 100 mg/kg QW, or combination of both
  HBsAg levels in serum (Average ± SD): 3.72 ± 0.85
D14, 15_1 1.5 mg/kg weekly, VI 100 mg/kg QOD, or combination of both
  HBsAg levels in serum (Average ± SD): 3.11 ± 1.35
D14, 15_1 1.5 mg/kg weekly, VI 100 mg/kg QW, or combination of both
  HBsAg levels in serum (Average ± SD): 3.52 ± 0.96
D14, 15_1 7.5 mg/kg weekly, VI 100 mg/kg QOD, or combination of both
  HBsAg levels in serum (Average ± SD): 3.11 ± 1.35
D14, 15_1 7.5 mg/kg weekly, VI 100 mg/kg QW, or combination of both
  HBsAg levels in serum (Average ± SD): 3.52 ± 0.96
D21, 15_1 1.5 mg/kg weekly, VI 100 mg/kg QOD, or combination of both
  HBsAg levels in serum (Average ± SD): 2.62 ± 1.41
D21, 15_1 1.5 mg/kg weekly, VI 100 mg/kg QW, or combination of both
  HBsAg levels in serum (Average ± SD): 3.07 ± 1.22
D21, 15_1 7.5 mg/kg weekly, VI 100 mg/kg QOD, or combination of both
  HBsAg levels in serum (Average ± SD): 2.62 ± 1.41
D21, 15_1 7.5 mg/kg weekly, VI 100 mg/kg QW, or combination of both
  HBsAg levels in serum (Average ± SD): 3.07 ± 1.22
D28, 15_1 1.5 mg/kg weekly, VI 100 mg/kg QOD, or combination of both
  HBsAg levels in serum (Average ± SD): 2.21 ± 1.28
D28, 15_1 1.5 mg/kg weekly, VI 100 mg/kg QW, or combination of both
  HBsAg levels in serum (Average ± SD): 2.65 ± 1.37
D28, 15_1 7.5 mg/kg weekly, VI 100 mg/kg QOD, or combination of both
  HBsAg levels in serum (Average ± SD): 2.21 ± 1.28
D28, 15_1 7.5 mg/kg weekly, VI 100 mg/kg QW, or combination of both
  HBsAg levels in serum (Average ± SD): 2.65 ± 1.37
D35, 15_1 1.5 mg/kg weekly, VI 100 mg/kg QOD, or combination of both
  HBsAg levels in serum (Average ± SD): 1.78 ± 1.18
D35, 15_1 1.5 mg/kg weekly, VI 100 mg/kg QW, or combination of both
  HBsAg levels in serum (Average ± SD): 2.49 ± 1.29
D35, 15_1 7.5 mg/kg weekly, VI 100 mg/kg QOD, or combination of both
  HBsAg levels in serum (Average ± SD): 1.78 ± 1.18
D35, 15_1 7.5 mg/kg weekly, VI 100 mg/kg QW, or combination of both
  HBsAg levels in serum (Average ± SD): 2.49 ± 1.29
D42, 15_1 1.5 mg/kg weekly, VI 100 mg/kg QOD, or combination of both
  HBsAg levels in serum (Average ± SD): 1.57 ± 0.97
D42, 15_1 1.5 mg/kg weekly, VI 100 mg/kg QW, or combination of both
  HBsAg levels in serum (Average ± SD): 2.28 ± 1.28
D42, 15_1 7.5 mg/kg weekly, VI 100 mg/kg QOD, or combination of both
  HBsAg levels in serum (Average ± SD): 1.57 ± 0.97
D42, 15_1 7.5 mg/kg weekly, VI 100 mg/kg QW, or combination of both
  HBsAg levels in serum (Average ± SD): 2.28 ± 1.28
D49, 15_1 1.5 mg/kg weekly, VI 100 mg/kg QOD, or combination of both
  HBsAg levels in serum (Average ± SD): 1.63 ± 0.86
D49, 15_1 1.5 mg/kg weekly, VI 100 mg/kg QW, or combination of both
  HBsAg levels in serum (Average ± SD): 1.9 ± 1.07
D49, 15_1 7.5 mg/kg weekly, VI 100 mg/kg QOD, or combination of both
  HBsAg levels in serum (Average ± SD): 1.63 ± 0.86
D49, 15_1 7.5 mg/kg weekly, VI 100 mg/kg QW, or combination of both
  HBsAg levels in serum (Average ± SD): 1.90 ± 1.07
D56, 15_1 1.5 mg/kg weekly, VI 100 mg/kg QOD, or combination of both
  HBsAg levels in serum (Average ± SD): 1.56 ± 0.77
D56, 15_1 1.5 mg/kg weekly, VI 100 mg/kg QW, or combination of both
  HBsAg levels in serum (Average ± SD): 2.13 ± 1
D56, 15_1 7.5 mg/kg weekly, VI 100 mg/kg QOD, or combination of both
  HBsAg levels in serum (Average ± SD): 1.56 ± 0.77
